Legend:
[1] = biological target: NOX1-b (Homo sapiens, UniProt Q9Y5S8); conditions: 1 μM added 30 minutes before the addition of cytochrome C; NOX1-b expressing NIH3T3 cells
Method: Using the NOX1-b expressing cells shown in Example 3, the ROS productivity was measured by a cytochrome C reduction method. In order to measure ROS by the cytochrome C reduction method, vacant vector expressing cells and NOX1-b expressing cells were respectively dispensed in 0.5×10^6 cells/100 μl/well portions into a 96 well multi-well plate for cell culture (to be referred to as multi-well plate). About 12 hours thereafter, 4.62 mg/ml of cytochrome C was added and mixed in 100 μl/well portions under respective conditions, and then the multi-well plate was set on a plate reader to periodically measurement of absorbance at 550 nm.

[2] = system: TNF-α mRNA in NOX1-b expressing cells; conditions: pretreated for 3 hours with 1 μM; RT-PCR, EtBr staining
Method: On each of the cDNA samples prepared in Example 6 and using a DNA polymerase (r Taq DNA polymerase; mfd. by Toyobo), RT-PCR reaction of 94° C. for 1 minute, 45 cycles of consisting of 94° C. for 10 seconds and 55° C. for 20 seconds and 72° C. for 30 seconds, was carried out.

[3] = system: COX-2 mRNA in NOX1-b expressing cells; conditions: final concentration of 1 μM, RT-PCR 3 hours thereafter; EtBr staining
Method: Using the mRNA extraction method shown in Example 1, respective cDNA samples were prepared from the vacant vector expressing cells and NOX1-b expressing cells. By synthesizing probe primers coding for the COX-2-specific sequences represented by SEQ ID NO:9 and SEQ ID NO:10, an RT-PCT reaction of 94° C. for 1 minute and 45 cycles consisting of 94° C. for 10 seconds, 55° C. for 20 seconds and 72° C. for 30 seconds, was carried out on each of the vacant vector expressing cell- and NOX1-b expressing cells-derived samples using a DNA polymerase (r Taq DNA polymerase; mfd. by Toyobo).

NOX1-b, sequence (Q9Y5S8 1-515 isoform Q9Y5S8-3): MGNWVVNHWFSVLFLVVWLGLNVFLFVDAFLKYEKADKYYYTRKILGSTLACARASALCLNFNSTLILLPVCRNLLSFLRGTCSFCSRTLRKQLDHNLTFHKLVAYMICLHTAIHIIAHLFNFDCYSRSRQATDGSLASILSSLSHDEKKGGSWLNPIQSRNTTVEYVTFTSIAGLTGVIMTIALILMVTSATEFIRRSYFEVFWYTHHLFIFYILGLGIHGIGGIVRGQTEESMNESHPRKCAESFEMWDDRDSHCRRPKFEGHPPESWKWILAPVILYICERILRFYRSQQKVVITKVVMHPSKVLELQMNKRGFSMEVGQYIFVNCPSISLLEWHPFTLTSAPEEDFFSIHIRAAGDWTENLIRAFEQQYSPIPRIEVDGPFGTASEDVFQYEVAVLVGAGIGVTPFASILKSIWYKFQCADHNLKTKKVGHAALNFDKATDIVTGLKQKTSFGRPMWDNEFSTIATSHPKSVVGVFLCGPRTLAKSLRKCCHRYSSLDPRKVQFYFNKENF
NOX1-b, sequence (Q61462 whole entry partner): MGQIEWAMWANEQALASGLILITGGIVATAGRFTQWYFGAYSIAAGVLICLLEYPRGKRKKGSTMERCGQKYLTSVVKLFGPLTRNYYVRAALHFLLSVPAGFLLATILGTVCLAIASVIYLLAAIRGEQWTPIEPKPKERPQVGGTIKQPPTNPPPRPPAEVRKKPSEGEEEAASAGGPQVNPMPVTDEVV

c1ccc2c(c1)[I+]c1ccccc1-2 [DPI, diphenylene iodonium chloride]
ROS producing activity (absorbance at 550 nm, integrated values after 1 hour) [1]: considerably inhibited
induction of TNF-α expression in NOX1-b expressing cells [2]: inhibited
induction of COX-2 expression by NOX1-b expression [3]: inhibited

Source: patent US20050124056A1, “Novel oxidase” (priority 2002, published 2005)
